Source: US20230085307A1, “PYRIDAZINONE COMPOUND AND HERBICIDE” (NISSAN CHEMICAL CORPORATION, priority 2019, published 2023)

Tests used:
[1] = system: southern crabgrass; assay: Test Example 4: herbicidal effect by soil treatment (Table 19, symbol F); format: in vivo, southern crabgrass (Digitaria ciliaris); settings: amount of applied herbicide 320 g/ha
How it was run: (§1)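 Step 1: sow seeds in sterilized diluvial soil, cover ~1.5 cm. Step 2: spray diluted emulsion onto soil surface at predetermined rate. Step 3: greenhouse, 25–30° C, three weeks. Step 4: grade effect on each plant by earlier criteria.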

[2] = system: Italian ryegrass; assay: Test Example 5: herbicidal effect by foliage application, plastic box (Table 20, symbol K); format: in vivo, Italian ryegrass (Lolium multiflorum); settings: foliage application, 320 g/ha, three weeks after application
How it was run: (§2)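 Foliar spray test: emulsion formulation diluted in water to a set application rate, sprayed onto 14-day-old plants raised in diluvial soil at 25° C to 30° C under glass. Both herbicidal effect and crop effect rated visually three weeks later.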

[3] = system: chickweed; assay: Test Example 4: herbicidal effect by soil treatment (Table 19, symbol P); format: in vivo, common chickweed (Stellaria media); settings: amount of applied herbicide 320 g/ha
How it was run: as §1

[4] = system: windgrass; assay: Test Example 4: herbicidal effect by soil treatment (Table 19, symbol L); format: in vivo, windgrass (Apera spica-venti); settings: amount of applied herbicide 320 g/ha
How it was run: as §1

[5] = system: persian speedwell; assay: Test Example 4: herbicidal effect by soil treatment (Table 19, symbol R); format: in vivo, Persian speedwell (Veronica persica); settings: amount of applied herbicide 320 g/ha
How it was run: as §1

[6] = system: redroot pigweed; assay: Test Example 4: herbicidal effect by soil treatment (Table 19, symbol N); format: in vivo, redroot pigweed (Amaranthus retroflexus); settings: amount of applied herbicide 320 g/ha
How it was run: as §1

[7] = system: barnyard grass; assay: Test Example 3: herbicidal effect by foliage application, Wagner pot (Table 18, symbol H); format: in vivo, barnyard grass (Echinochloa crus-galli); settings: 320 g/ha
How it was run: (§3)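 Plants were sown in alluvial soil held under 0.1–0.5 cm standing water and grown 14 days in a greenhouse at 25–30 °C. An emulsifiable formulation, water-diluted to the set dose, was then sprayed onto the foliage, and effects were scored three weeks later using previously defined criteria.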

[8] = system: wild oat; assay: Test Example 5: herbicidal effect by foliage application, plastic box (Table 20, symbol I); format: in vivo, wild oat (Avena fatua); settings: foliage application, 320 g/ha, three weeks after application
How it was run: as §2

[9] = system: velvetleaf; assay: Test Example 5: herbicidal effect by foliage application, plastic box (Table 20, symbol M); format: in vivo, velvetleaf (Abutilon theophrasti); settings: foliage application, 320 g/ha, three weeks after application
How it was run: as §2

[10] = system: persian speedwell; assay: Test Example 5: herbicidal effect by foliage application, plastic box (Table 20, symbol R); format: in vivo, Persian speedwell (Veronica persica); settings: foliage application, 320 g/ha, three weeks after application
How it was run: as §2

[11] = system: Chinese sprangletop; assay: Test Example 3: herbicidal effect by foliage application, Wagner pot (Table 18, symbol D); format: in vivo, chinese sprangletop (Leptochloa chinensis); settings: 320 g/ha
How it was run: as §3

[12] = system: southern crabgrass; assay: Test Example 5: herbicidal effect by foliage application, plastic box (Table 20, symbol F); format: in vivo, southern crabgrass (Digitaria ciliaris); settings: foliage application, 320 g/ha, three weeks after application
How it was run: as §2

[13] = system: wild oat; assay: Test Example 4: herbicidal effect by soil treatment (Table 19, symbol I); format: in vivo, wild oat (Avena fatua); settings: amount of applied herbicide 320 g/ha
How it was run: as §1

[14] = system: lambsquarters; assay: Test Example 5: herbicidal effect by foliage application, plastic box (Table 20, symbol O); format: in vivo, lambsquarters (Chenopodium album); settings: foliage application, 320 g/ha, three weeks after application
How it was run: as §2

[15] = system: barnyard grass; assay: Test Example 5: herbicidal effect by foliage application, plastic box (Table 20, symbol H); format: in vivo, barnyard grass (Echinochloa crus-galli); settings: foliage application, 320 g/ha, three weeks after application
How it was run: as §2

[16] = system: rice flat sedge; assay: Test Example 3: herbicidal effect by foliage application, Wagner pot (Table 18, symbol E); format: in vivo, rice flat sedge (Cyperus iria); settings: 320 g/ha
How it was run: as §3

[17] = system: blackgrass; assay: Test Example 4: herbicidal effect by soil treatment (Table 19, symbol J); format: in vivo, blackgrass (Alopecurus myosuroides); settings: amount of applied herbicide 320 g/ha
How it was run: as §1

[18] = system: Italian ryegrass; assay: Test Example 4: herbicidal effect by soil treatment (Table 19, symbol K); format: in vivo, Italian ryegrass (Lolium multiflorum); settings: amount of applied herbicide 320 g/ha
How it was run: as §1

[19] = system: barnyard grass; assay: Test Example 4: herbicidal effect by soil treatment (Table 19, symbol H); format: in vivo, barnyard grass (Echinochloa crus-galli); settings: amount of applied herbicide 320 g/ha
How it was run: as §1

[20] = system: windgrass; assay: Test Example 5: herbicidal effect by foliage application, plastic box (Table 20, symbol L); format: in vivo, windgrass (Apera spica-venti); settings: foliage application, 320 g/ha, three weeks after application
How it was run: as §2

[21] = system: Japanese bulrush; assay: Test Example 1: herbicidal activity, application before weed generation under submerged conditions (Table 16, symbol B); format: in vivo, Japanese bulrush (Schoenoplectus juncoides); settings: amount of applied herbicide 320 g/ha
How it was run: (§4)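 Submerged Wagner pots (alluvial soil, 4 cm water) sown with weed seeds and planted with 2.5-leaf rice seedlings; emulsifiable concentrate diluted in water applied to water surface on sowing day. Held in greenhouse at 25-30 °C; injury scored 0-5 by herbicidal rate after three weeks.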

[22] = system: chickweed; assay: Test Example 5: herbicidal effect by foliage application, plastic box (Table 20, symbol P); format: in vivo, common chickweed (Stellaria media); settings: foliage application, 320 g/ha, three weeks after application
How it was run: as §2

[23] = system: green foxtail; assay: Test Example 4: herbicidal effect by soil treatment (Table 19, symbol G); format: in vivo, green foxtail (Setaria viridis); settings: amount of applied herbicide 320 g/ha
How it was run: as §1

[24] = system: velvetleaf; assay: Test Example 4: herbicidal effect by soil treatment (Table 19, symbol M); format: in vivo, velvetleaf (Abutilon theophrasti); settings: amount of applied herbicide 320 g/ha
How it was run: as §1

[25] = system: false cleavers; assay: Test Example 4: herbicidal effect by soil treatment (Table 19, symbol Q); format: in vivo, false cleavers (Galium spurium); settings: amount of applied herbicide 320 g/ha
How it was run: as §1

[26] = system: blackgrass; assay: Test Example 5: herbicidal effect by foliage application, plastic box (Table 20, symbol J); format: in vivo, blackgrass (Alopecurus myosuroides); settings: foliage application, 320 g/ha, three weeks after application
How it was run: as §2

[27] = system: late watergrass; assay: Test Example 1: herbicidal activity, application before weed generation under submerged conditions (Table 16, symbol A); format: in vivo, late watergrass (Echinochloa oryzicola); settings: amount of applied herbicide 320 g/ha
How it was run: as §4

[28] = system: lambsquarters; assay: Test Example 4: herbicidal effect by soil treatment (Table 19, symbol O); format: in vivo, lambsquarters (Chenopodium album); settings: amount of applied herbicide 320 g/ha
How it was run: as §1

[29] = system: green foxtail; assay: Test Example 5: herbicidal effect by foliage application, plastic box (Table 20, symbol G); format: in vivo, green foxtail (Setaria viridis); settings: foliage application, 320 g/ha, three weeks after application
How it was run: as §2

[30] = system: oval-leafed pondweed; assay: Test Example 1: herbicidal activity, application before weed generation under submerged conditions (Table 16, symbol C); format: in vivo, oval-leafed pondweed (Monochoria vaginalis); settings: amount of applied herbicide 320 g/ha
How it was run: as §4

[31] = system: redroot pigweed; assay: Test Example 5: herbicidal effect by foliage application, plastic box (Table 20, symbol N); format: in vivo, redroot pigweed (Amaranthus retroflexus); settings: foliage application, 320 g/ha, three weeks after application
How it was run: as §2

Question: With `Cc1nn(C)c(=O)c(-c2c(-c3ccc(OC(F)F)cc3)sc3cc(F)ccc23)c1O` [3-141] as the molecule, how does the “Herbicidal effect by soil treatment, F: southern crabgrass” value [1] read?
Answer: 0 (Herbicidal rate of 5% or less (almost no effect))

Question: And the “K: Italian ryegrass, herbicidal effect grade” value [2]?
Answer: 5 (Herbicidal rate of 90% or more (almost completely withered))

Question: And the “Herbicidal effect by soil treatment, P: chickweed” value [3]?
Answer: 3 (Herbicidal rate of 40% or more and less than 70%)

Question: And the “Herbicidal effect by soil treatment, L: windgrass” value [4]?
Answer: 3 (Herbicidal rate of 40% or more and less than 70%)

Question: What about the “Herbicidal effect by soil treatment, R: persian speedwell” value [5] of the same molecule?
Answer: 4 (Herbicidal rate of 70% or more and less than 90%)

Question: What about the “Herbicidal effect by soil treatment, N: redroot pigweed” value [6] of the same molecule?
Answer: 5 (Herbicidal rate of 90% or more (almost completely withered))

Question: What about the “herbicidal effect on barnyard grass (H)” value [7] of the same molecule?
Answer: 5 (Herbicidal rate of 90% or more (almost completely withered))

Question: And the “I: wild oat, herbicidal effect grade” value [8]?
Answer: 1 (Herbicidal rate of 5% or more and less than 20%)

Question: And the “M: velvetleaf, herbicidal effect grade” value [9]?
Answer: 5 (Herbicidal rate of 90% or more (almost completely withered))

Question: And the “R: persian speedwell, herbicidal effect grade” value [10]?
Answer: 5 (Herbicidal rate of 90% or more (almost completely withered))

Question: What about the “herbicidal effect on Chinese sprangletop (D)” value [11] of the same molecule?
Answer: 2 (Herbicidal rate of 20% or more and less than 40%)

Question: And the “F: southern crabgrass, herbicidal effect grade” value [12]?
Answer: 0 (Herbicidal rate of 5% or less (almost no effect))

Question: And the “Herbicidal effect by soil treatment, I: wild oat” value [13]?
Answer: 0 (Herbicidal rate of 5% or less (almost no effect))

Question: And the “O: lambsquarters, herbicidal effect grade” value [14]?
Answer: 5 (Herbicidal rate of 90% or more (almost completely withered))

Question: And the “H: barnyard grass, herbicidal effect grade” value [15]?
Answer: 4 (Herbicidal rate of 70% or more and less than 90%)

Question: What about the “herbicidal effect on rice flat sedge (E)” value [16] of the same molecule?
Answer: 5 (Herbicidal rate of 90% or more (almost completely withered))

Question: What about the “Herbicidal effect by soil treatment, J: blackgrass” value [17] of the same molecule?
Answer: 3 (Herbicidal rate of 40% or more and less than 70%)

Question: What about the “Herbicidal effect by soil treatment, K: Italian ryegrass” value [18] of the same molecule?
Answer: 3 (Herbicidal rate of 40% or more and less than 70%)

Question: What about the “Herbicidal effect by soil treatment, H: barnyard grass” value [19] of the same molecule?
Answer: 3 (Herbicidal rate of 40% or more and less than 70%)

Question: And the “L: windgrass, herbicidal effect grade” value [20]?
Answer: 5 (Herbicidal rate of 90% or more (almost completely withered))

Question: What about the “Herbicidal effect, B: Japanese bulrush” value [21] of the same molecule?
Answer: 0 (Herbicidal rate of 5% or less (almost no effect))

Question: What about the “P: chickweed, herbicidal effect grade” value [22] of the same molecule?
Answer: 5 (Herbicidal rate of 90% or more (almost completely withered))

Question: And the “Herbicidal effect by soil treatment, G: green foxtail” value [23]?
Answer: 1 (Herbicidal rate of 5% or more and less than 20%)

Question: What about the “Herbicidal effect by soil treatment, M: velvetleaf” value [24] of the same molecule?
Answer: 3 (Herbicidal rate of 40% or more and less than 70%)

Question: And the “Herbicidal effect by soil treatment, Q: false cleavers” value [25]?
Answer: 0 (Herbicidal rate of 5% or less (almost no effect))

Question: What about the “J: blackgrass, herbicidal effect grade” value [26] of the same molecule?
Answer: 4 (Herbicidal rate of 70% or more and less than 90%)

Question: What about the “Herbicidal effect, A: late watergrass” value [27] of the same molecule?
Answer: 3 (Herbicidal rate of 40% or more and less than 70%)

Question: And the “Herbicidal effect by soil treatment, O: lambsquarters” value [28]?
Answer: 5 (Herbicidal rate of 90% or more (almost completely withered))

Question: What about the “G: green foxtail, herbicidal effect grade” value [29] of the same molecule?
Answer: 5 (Herbicidal rate of 90% or more (almost completely withered))

Question: And the “Herbicidal effect, C: oval-leafed pondweed” value [30]?
Answer: 0 (Herbicidal rate of 5% or less (almost no effect))

Question: And the “N: redroot pigweed, herbicidal effect grade” value [31]?
Answer: 5 (Herbicidal rate of 90% or more (almost completely withered))
